Laboratory results from US20190076439A1, “AMINOPHENOTHIAZINES FOR MODULATING THE NUMBER OF SYNAPSES” (CONSEJO SUPERIOR DE INVESTIGACIONES CIENTIFICAS (CSIC), priority 2015, published 2019).

Tests used:
[1] = molecular target: T1, Drosophila NCS-1 (Frq2) protein (Drosophila melanogaster, UniProt Q9VWX8); assay: Crystallographic structure of the NCS-1 complex with FD44; assay type: binding; details: 1.6 Å dataset, FIG. 4
T1 sequence (Q9VWX8 1-187): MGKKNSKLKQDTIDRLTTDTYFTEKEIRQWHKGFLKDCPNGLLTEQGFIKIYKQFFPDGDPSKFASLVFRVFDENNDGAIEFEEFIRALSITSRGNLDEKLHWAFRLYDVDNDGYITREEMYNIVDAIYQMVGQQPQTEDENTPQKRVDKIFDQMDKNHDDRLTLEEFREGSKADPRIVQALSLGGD
Description: FIG. 4 (A) Representation of the crystallographic structure of the NCS1/FD44 complex. The FD44 molecule is shown in sticks. The 2Fo-Fc map of the small molecule is shown at 1σ. (B) Representation of the electrostatic molecular surface of NCS1 bound to FD44 where the hydrophobic environment of FD44 is observed. (C) Detailed view of the amino acids in contact with FD44. The majority of the interactions are Van der Waals, except a strong hydrogen bond with T92, that is mediated by water molecule (with discontinuous black lines), and three weak hydrogen bonds where a C atom is the hydrogen donor and an O atom is the acceptor. (D) Close-up view of the cavity where FD44 is bound.
The purified Drosophila NCS-1 (Frq2) protein was dialyzed with water and concentrated to 10 mg ml-1 using a concentrator with a cut membrane of 10 kDa (Vivaspin®). 0.3 mg of FD44 were added to 250 μl of protein sample and incubated for 16 hours at 4° C. The insoluble fraction of the compound was separated by centrifugation. The preliminary crystallization experiments were carried out using the Innovadine® crystallization robot and commercial crystallization kits (Molecular Dimensions®, Qiagen®, Hampton Research® and Jena Bioscience®). […]

[2] = molecular target: T2, interaction between human NCS1 and Ric8a (Homo sapiens, UniProt P62166); assay: Coimmunoprecipitation interference test of the NCS1/Ric8a interaction in lysate of transfected HEK293 cells; assay type: biochemical; details: HEK293 cells transfected with V5-Ric8a and NCS1; lysate incubated with compound; FIG. 2
T2 construct: The NCS1 construct was subcloned into pCDNA3.1; expressed in transfected cells; host or cells: HEK293
T2 sequence (P62166 2-190 limits assumed): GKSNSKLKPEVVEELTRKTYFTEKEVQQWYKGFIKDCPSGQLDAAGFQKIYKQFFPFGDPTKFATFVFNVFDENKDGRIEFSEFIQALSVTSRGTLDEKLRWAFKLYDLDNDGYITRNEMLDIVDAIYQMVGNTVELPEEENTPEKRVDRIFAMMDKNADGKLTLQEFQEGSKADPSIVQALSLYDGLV
Description: The DMSO lane represents a positive control of the interaction.
In order to check whether the interaction which has been previously detected (Romero-Pozuelo J et al. The guanine-exchange factor Ric8a binds to the Ca^2+ sensor NCS-1 to regulate synapse number and neurotransmitter release. J Cell Sci. 2014 Oct. 1; 127(Pt 19):4246-59) between the Drosophila Frq2 and Ric8a proteins, the coimmunoprecipitation of their human equivalents, NCS1 and Ric8a was tested. Human Ric8a was subcloned into nV5pCDNA3.1. The NCS1 construct was subcloned into pCDNA3.1. The cotransfections were carried out in HEK293 cells using the Superfect® (Qiagen®) reagent and lysed 48 hours later. Before its clarification, the lysates were incubated with the respective compound at 4° C. for the night (12 hours) with and without anti-V5 (Invitrogen®) or anti-NCS1 (Cell Signaling Technology®) antibodies as is indicated in each experiment. As a negative control, immunoprecipitations were carried out with an unrelated antibody. The following antibodies and dilutions were used with the Western blots: rabbit anti-NCS1 (1:1000) and mouse anti-V5 (1:2000). […] The Ric8a immunoprecipitation pulls NCS1 and vice versa. […]

[3] = system: Drosophila fmr1 mutant and wild type larvae
Description: FIG. 3 A) volume of the neuromuscular plate normalized with respect to the wild type. Wt DMSO=wild type larvae grown in medium with DMSO carrier (200 micromolar), wt FD44=larvae grown in medium with FD44 dissolved in DMSO (200 micromolar), dFMRPmutDMSO=mutant larvae for the fmr1 gene grown in medium with DMSO, dFMRPmut FD44=mutant larvae grown in medium with FD44 (200 micromolar). B) Same genotypes computing the synapse number (immunopositive points for the nc82 monoclonal antibody). C) Same genotypes computing the number of collateral branches. D) Representative images of each genotype. Each image is an accumulation of all the confocal planes.
The mutating in the fmr1 gene corresponds to Fmr1^Δ50M # BL-6930 and the wild type corresponds to the Canton-S strain, all originating from the repository of the Bloomington Drosophila Stock Center. […] Once the medium had cooled, the vials were used normally for placing eggs and growing larvae at 25° C. until reaching the advanced LIII stage.
Reaching the advanced larva III stage, the animals were surgically processed to expose the neuromuscular junctures (NMJ) following the described method (Martin-Peña et al., Age-independent synaptogenesis by phosphoinositide 3 kinase. J Neurosci. 2006 Oct. 4; 26(40):10199-208). The nc82 antibody is a specific monoclonal for the Bruchpilot protein of Drosophila belonging to the CAST family of vertebrae and forms the presynaptic specialization. It was obtained from the Drosophila Hybridoma Bank (DSHB). The anti-HRP antibody produced in rabbits marks the neuronal membrane and was obtained from Jackson ImmunoResearch. A larval neuromuscular juncture was analyzed up to a total of 8-12 larvae per genotype to avoid growth artefacts. The serialized confocal sections of 1 micrometer thickness were analyzed and quantified using the Imaris® program.
The larval preparations were stained with the nc82 antibody to visualize the synapse and with the anti-HRP to visualize the membrane of the axon. Lastly, the synapse number was measured in images obtained in confocal microscopy and quantified by means of Imaris® software.

O=C(CN1CCCCC1)NN1c2ccccc2Sc2ccccc21 [FD44]
binding mode in the NCS-1 crystal complex [1]: inserted in the N-terminal part of the elongated hydrophobic groove | inhibition of the interaction between human NCS1 and Ric8a (coimmunoprecipitation, Western blot) [2]: effectively inhibits this interaction | neuronal projection volume (volume of the neuromuscular plate) ([3]; fmr1 mutant larvae, 200 micromolar in culture medium, FIG. 3A): reverts the neuronal projection volume to the normal levels of the controls | synapse number (nc82 immunopositive points) ([3]; fmr1 mutant larvae, 200 micromolar in culture medium, FIG. 3B): reversion in the mutant which has ingested FD44 | effect on wild type control (volume of the neuromuscular plate) ([3]; in vivo): innocuous for the wild type control | collateral branch number (neuritogenesis) ([3]; wild type and fmr1 mutant larvae, 200 micromolar in culture medium, FIG. 3C): does not show any change
